{"source": "patent US6548042B2", "about": "“Bis-phosphonate compounds” (priority 2000, dated 2003)", "key": {"MT-1 cells [1]": {"system": "MT-1 cells", "experiment": "Bone lesions to healthy bone ratio in rat inoculated with MT-1 cells (scintigraphy, Bioscope)", "type": "in vivo", "details": "15 MBq i.v. seven days after MT-1 inoculation, 24 h", "method": "Tumour lesion to healthy bone ratio. A rat weighing 114 g was given a single bolus tail vein injection of 15 MBq (500 μl) of 46a seven days after inoculation with 1×10^6 MT-1 cells. The animal was sacrificed 24 h postinjection. The whole animal was then placed under a gamma camera and images were obtained. The spine was then excised and cut into slices of 10 μm. The slices were molded in Epon and images were obtained with a beta camera.\nA prototype real time autoradiography system (Bioscope 3225, IDEAS, Høvik, Norway) consisting of a double sided multiple strip silicon detector was used to obtain images of bone slices.\nIn order to obtain ratios of bone cancer lesions to healthy bone, the hydroxybisphosphonate 46a was injected into a rat inoculated with MT-1 cells (a human breast cancer cell line, see section 4.2.3.1.) seven days earlier. The animal was sacrified 24 h postinjection and whole body images were obtained by means of scintigraphy. […] The radioactivity distributions in slices of the spine were then measured with a device (Bioscope) for real time autoradiography. The resulting images were automatically aligned by means of an image correlation method (Personal communication Arne Skretting, The Norwegian Radium Hospital, Oslo). Finally, the aligned images were added in layers to reconstruct the whole spine. […] Abnormal uptake was detected in one slice only. […]"}, "[2]": {"details": "mouse, in vivo", "quoted_text": "(§2) Mice. Samples of 100 μl containing 50,100, 400, 140 or 45 KBq of 31a, 34a, 46a, 67a or 72a, respectively, were injected into the tail veins as single bolus injections. […] At 0.5 h, 2 h, 5 h and 24 h postinjection times the animals were sacrificed; except in the case of the phosphate phosphonate derivative 31 were the animals were sacrificed 0.25 h, 2 h, 5 h and 24 h postinjection. Randomly selected groups of three animals were used at each time point. The whole animals were weighed and dissected. The excised organs, i.e. femur, skull, blood, heart, lung, liver, kidney, spleen, stomach, large intestine and small intestine, were weighed separately prior to counting.\n(§3) Radioactivity measurements of the labelled compounds were carried out with a liquid scintillation counter (Beckman LS 6500, Beckman Instruments, USA) or with a Capintec CRC-7R radioisotope calibrator (Capintec, USA). The radioactivity level of the excised organs was measured with an automated gamma counter (LKB Wallac 1282, Turku, Finland)."}, "MT-1 cells [3]": {"system": "MT-1 cells", "experiment": "Antitumour efficacy, MT-1 skeletal metastases model in nude rats", "type": "in vivo", "details": "for Mean survival time: 7 days after cell injection", "method": "(§1) Initially, a skeletal metastases model in nude rats, including the human breast carcinoma line MT-1 (1) was tested. A total of 1×10^6 cells were injected into the left vintricula of the heart (L.V.) of 4-5 weeks old nude rats (2). A primary osteogenic sarcoma model in nude rats, was established by intratibial (i.t.) injection of 1×10^6 OHS cells (3-5). A total of 20 animals, allocated in four groups (n=5 for each group) were used for both cell lines. The animals inoculated with MT-1 cells were treated with 200, 300 or 400 MBq/kg of 46a seven days after cell injection. The animals inoculated with OHS cells were treated with 100, 200 or 400 MBq/kg of 46a seven days after cell inoculation. The control groups (MT-1 and OHS) received saline only. Doses were corrected for the actual weight of each animal and administered by single bolus tail vein injections.\nThe MT-1 model simulates formation of mixed lytic/sclerotic skeletal metastasis in breast cancer patients. The model had recently been established in immuno-deficient rats by injections into the left ventricula (L.V.) of the oestrogen receptor-negative human breast cancer (MT-1) cell line.^83,84,85 In this model, large masses of tumour cells build up in the spine, replacing the normal bone marrow and eroding the bone part of the spine.\nTreatment with the hydroxybisphosphonate 46a was initiated 7 days after tumour cell inoculation, while the control group received saline only. […] In comparison, the mean survival times for the animals treated with 46a were 27.5 days (range 23-29, one survivor), 29.0 days (range 27-33) and 30.6 days (range 29-33) with increasing dose of 200, 300 and 400 MBq/kg, respectively (n=5 in each group)."}, "[4]": {"experiment": "Pharmacokinetics in mice by scintigraphy (gamma camera)", "type": "in vivo, balb/c mice", "method": "Pharmacokinetics in mice. Two animals weighing 20 g and 28 g were anaesthetized and given 250 μl single bolus tail vein injections containing 12 MBq of 46a. The animals were placed under a gamma camera and 2 min frames were collected for the following 2 h. The presented data refers to the animal weighing 20 g.\nA gamma camera (ADAC, USA) equipped with a 6 mm pinhole collimator was used. Dynamic data were acquired using a 128×128 matrix size, the field of view was zoomed to the middle 25×25 cm of the camera, and 2 min frames were collected for 2 hours.\nThe progression from intravenous injection of the hydroxybisphosphonate 46a in mice (balb/c, 20 g) was monitored by means of scintigraphy for 2 h. Images were obtained and dynamic curves for the radioactivity detected in the kidneys and bladder were derived by interactively drawing regions around structures of interest (FIG. 9). […] This is due to the increased sensitivity in the middle of the image, where the accumulation occurs in the kidneys and bladder."}, "OHS cells": {"system": "OHS cells", "experiment": "Antitumour efficacy, OHS osteogenic sarcoma model in nude rats", "type": "in vivo", "details": "for Mean disease-free latency: 7 days after cell inoculation", "method": "as §1\nThe OHS model had been established by intratibial injections of the osteogenic sarcoma (OHS) cell line in immuno-deficient rats.^86,87 Eventually, the rats develop palpable tibial tumours. At the time of treatment (7 days after cell inoculation) the tumours fill approximately 50-60% of the tibial cavity and have a substantial osteoid production closely resembling that of osteoblastic osteosarcomas in the clinic.^88 The model has been used to evaluate the antitumour efficacy of several drugs currently used in the treatment of bone-related cancer.\nDisease-free latency was defined as the period between tumour cell inoculation and the time the diameter of the tumour-injected tibia had increased by 2-3 mm compared with that of the non-injected contralateral leg."}, "[5]": {"experiment": "Biodistribution of i.v. administered radioiodinated compounds in balb/c mice", "quoted_text": "as §2, §3"}, "[6]": {"details": "all animals treated (100, 200, 400 MBq/kg)"}, "[7]": {"details": "24 h postinjection, i.v., listed as 3h"}}, "note": "“And” between values parts separate entries of the source, which are not always exact repeats. Equal values may be shown once.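 Wherever Activity in blood is given: healthy mice given radioiodinated bisphosphonic acids, with randomly chosen groups of three animals per time point.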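 Wherever Bone-seeking properties is given: healthy mice given radioiodinated bisphosphonic acids, with randomly chosen groups of three animals per time point.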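 Wherever Uptake in femur is given: healthy mice given radioiodinated bisphosphonic acids, with randomly chosen groups of three animals per time point.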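 Wherever Uptake in kidneys is given: healthy mice given radioiodinated bisphosphonic acids, with randomly chosen groups of three animals per time point.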", "data": [{"smiles": "O=P(O)(O)C(O)(Cc1cccc([131I])c1)P(=O)(O)O", "note": "[46a, 1-hydroxy(m-[^131I and ^125I]-iodophenyl)-ethylidene-1,1-bisphosphonic acid]", "values": [{"measurement": "Bone cancer lesions to healthy bone ratio", "setting": "MT-1 cells [1]", "value": "inconclusive"}, {"measurement": "Bone-seeking properties", "setting": "[2]", "value": "potent bone-seekers"}, {"measurement": "Survival time, range", "setting": "MT-1 cells [3]; 200 MBq/kg", "value": "23 to 29", "unit": "days"}, {"measurement": "Mean survival time", "setting": "MT-1 cells [3]; 200 MBq/kg, n=5", "value": 27.5, "unit": "days"}, {"measurement": "Long time survivors", "setting": "MT-1 cells [3]; 200 MBq/kg, n=5", "value": "one survivor"}, {"measurement": "Survival time, range", "setting": "MT-1 cells [3]; 300 MBq/kg", "value": "27 to 33", "unit": "days"}, {"measurement": "Mean survival time", "setting": "MT-1 cells [3]; 300 MBq/kg, n=5", "value": 29.0, "unit": "days"}, {"measurement": "Survival time, range", "setting": "MT-1 cells [3]; 400 MBq/kg", "value": "29 to 33", "unit": "days"}, {"measurement": "Mean survival time", "setting": "MT-1 cells [3]; 400 MBq/kg, n=5", "value": 30.6, "unit": "days"}, {"measurement": "p of increased survival time (lifetime) compared with controls", "setting": "MT-1 cells [3]; all dose levels (200, 300, 400 MBq/kg), Wilcoxon rank-sum test, long time survivors excluded", "value": "< 0.05"}, {"measurement": "Lifetime after treatment", "setting": "MT-1 cells [3]; breast cancer model", "value": "increased lifetime"}, {"measurement": "Injected activity accumulated in the bladder", "setting": "[4]; after 2 hours, mouse 20 g, 12 MBq i.v.", "value": 27, "unit": "%"}, {"measurement": "Peak uptake in the kidneys (left and right)", "setting": "[4]; at 45 min postinjection", "value": "7.5 % of the injected dose"}, {"measurement": "Biological half-life in the kidneys", "setting": "[4]; from the peak at 45 min", "value": 50, "unit": "min"}, {"measurement": "Estimated excretion of the injected dose", "setting": "[4]; mouse, in vivo", "value": 35, "unit": "%"}, {"measurement": "Estimated retention of the injected dose", "setting": "[4]; mouse, in vivo", "value": 65, "unit": "%"}, {"measurement": "Time of peak uptake in the kidneys", "setting": "[4]; postinjection", "value": 45, "unit": "min"}, {"measurement": "Disease-free latency, range", "setting": "OHS cells; 100 MBq/kg", "value": "18 to 32", "unit": "days"}, {"measurement": "Mean disease-free latency", "setting": "OHS cells; 100 MBq/kg, n=5", "value": 27, "unit": "days"}, {"measurement": "Survivors", "setting": "OHS cells; 100 MBq/kg, n=5", "value": "one survivor"}, {"measurement": "Disease-free latency, range", "setting": "OHS cells; 200 MBq/kg", "value": "26 to 36", "unit": "days"}, {"measurement": "Mean disease-free latency", "setting": "OHS cells; 200 MBq/kg, n=5", "value": 30, "unit": "days"}, {"measurement": "Survivors", "setting": "OHS cells; 200 MBq/kg, n=5", "value": "one survivor"}, {"measurement": "Disease-free latency, range", "setting": "OHS cells; 400 MBq/kg", "value": "26 to 36", "unit": "days"}, {"measurement": "Mean disease-free latency", "setting": "OHS cells; 400 MBq/kg, n=5", "value": 31, "unit": "days"}, {"measurement": "Long time survivors (>100 days)", "setting": "OHS cells; [6]", "value": 33, "unit": "%"}, {"measurement": "Long time survivors (>100 days), animals", "setting": "OHS cells; [6]", "value": "5 of 15"}, {"measurement": "Long time survivors", "setting": "OHS cells; highest dose, 400 MBq/kg, n=5", "value": 60, "unit": "%"}, {"measurement": "Long time survivors (animals)", "setting": "OHS cells; highest dose, 400 MBq/kg, n=5", "value": "3 and 3 of 5"}, {"measurement": "Long time survivors (animals)", "setting": "OHS cells; highest dose, 400 MBq/kg, n=5, listed as 1", "value": "3 of 5"}, {"measurement": "P of increase in disease-free latency time compared to the other groups", "setting": "OHS cells; highest dose, Kruskal-Wallis test", "value": "< 05"}, {"measurement": "Lifetime after treatment", "setting": "OHS cells; osteosarcoma model", "value": "dramatic increase in lifetime"}, {"measurement": "Uptake in femur", "setting": "[5]; 0.5 h (30 min) postinjection, i.v.", "value": "45.03±6.75", "unit": "% ID/g"}, {"measurement": "Uptake in femur", "setting": "[5]; 0.5 h (30 min) postinjection, i.v., listed as 3h", "value": "45±7", "unit": "% ID/g"}, {"measurement": "Activity in blood", "setting": "[5]; 0.5 h postinjection, i.v.", "value": "15.92±12.75", "unit": "% ID/g"}, {"measurement": "Uptake in kidneys", "setting": "[5]; 0.5 h postinjection, i.v.", "value": "18.64±1.78", "unit": "% ID/g"}, {"measurement": "Uptake in skull", "setting": "[5]; 0.5 h postinjection, i.v.", "value": "24.61±3.85", "unit": "% ID/g"}, {"measurement": "Uptake in femur", "setting": "[5]; 2 h postinjection (peak), i.v.", "value": "45.54±4.10", "unit": "% ID/g"}, {"measurement": "Uptake in femur", "setting": "[5]; 2 h postinjection (peak), i.v., listed as 3h", "value": "46±4", "unit": "% ID/g"}, {"measurement": "Activity in blood", "setting": "[5]; 2 h postinjection, i.v.", "value": "1.36±0.25", "unit": "% ID/g"}, {"measurement": "Femur to soft tissue ratio", "setting": "[5]; 24 h, soft tissue with highest uptake", "value": "≥ 7"}, {"measurement": "Uptake in femur", "setting": "[5]; 24 h postinjection, i.v.", "value": "37.79±11.78", "unit": "% ID/g"}, {"measurement": "Uptake in kidneys", "setting": "[5]; 24 h postinjection, i.v.", "value": "5.16±2.00", "unit": "% ID/g"}, {"measurement": "Uptake in liver", "setting": "[5]; 24 h postinjection, i.v.", "value": "2.27±0.69", "unit": "% ID/g"}, {"measurement": "Uptake in femur", "setting": "[5]; [7]", "value": "38±12", "unit": "% ID/g"}, {"measurement": "Uptake in kidneys", "setting": "[5]; [7]", "value": "5±2", "unit": "% ID/g"}, {"measurement": "Uptake in liver", "setting": "[5]; [7]", "value": "2±0.7", "unit": "% ID/g"}, {"measurement": "Uptake in femur expressed as % gram dose per gram tissue", "setting": "[5]; balb/c mice, 20-25 g, 2 h, maximum uptake, listed as 1", "value": "1025 (balb/c mice, 20-25 g, 2 h), % gram dose per gram tissue"}, {"measurement": "Uptake in stomach", "setting": "[5]; balb/c mice, 20-25 g, 24 h", "value": "0.13 ± 0.01", "unit": "% ID/g"}, {"measurement": "Uptake in the thyroid", "setting": "[5]; balb/c mice, 20-25 g, 24 h", "value": "0.06 ± 0.04", "unit": "% injected dose/organ"}, {"measurement": "Ratio between uptake in femur and kidney", "setting": "[5]; balb/c mice, 20-25 g, 24 h, listed as 1", "value": "7.3 (femur/kidney, balb/c mice, 20-25 g,"}, {"measurement": "Ratio between uptake in femur and kidney", "setting": "[5]; balb/c mice, 20-25 g, 24 h, listed as 3h", "value": 7}, {"measurement": "In vivo stability relative to compound 2 and 3", "setting": "[5]; from thyroid and stomach uptake, Table 3", "value": "about 7 times"}, {"measurement": "Discomfort or toxicity after administration of samples", "setting": "[5]; single bolus tail vein injection, 100 μl", "value": "No sign of discomfort or toxicity was observed"}]}]}
